{
  "source": "paper PMC8836281",
  "about": "“Characterisation of Endogenous Peptides Present in Virgin Olive Oil” (International Journal of Molecular Sciences, 2022)",
  "key": {"rabbit-lung ACE": {"biological_target": "T1, rabbit-lung ACE (Oryctolagus cuniculus, UniProt P12822)", "T1 construct": "rabbit-lung ACE (E.C.3.4.15.1., Sigma-Aldrich); purchased Sigma-Aldrich; host or cells: rabbit lung (tissue-derived enzyme)", "T1 sequence (P12822 34-1310)": "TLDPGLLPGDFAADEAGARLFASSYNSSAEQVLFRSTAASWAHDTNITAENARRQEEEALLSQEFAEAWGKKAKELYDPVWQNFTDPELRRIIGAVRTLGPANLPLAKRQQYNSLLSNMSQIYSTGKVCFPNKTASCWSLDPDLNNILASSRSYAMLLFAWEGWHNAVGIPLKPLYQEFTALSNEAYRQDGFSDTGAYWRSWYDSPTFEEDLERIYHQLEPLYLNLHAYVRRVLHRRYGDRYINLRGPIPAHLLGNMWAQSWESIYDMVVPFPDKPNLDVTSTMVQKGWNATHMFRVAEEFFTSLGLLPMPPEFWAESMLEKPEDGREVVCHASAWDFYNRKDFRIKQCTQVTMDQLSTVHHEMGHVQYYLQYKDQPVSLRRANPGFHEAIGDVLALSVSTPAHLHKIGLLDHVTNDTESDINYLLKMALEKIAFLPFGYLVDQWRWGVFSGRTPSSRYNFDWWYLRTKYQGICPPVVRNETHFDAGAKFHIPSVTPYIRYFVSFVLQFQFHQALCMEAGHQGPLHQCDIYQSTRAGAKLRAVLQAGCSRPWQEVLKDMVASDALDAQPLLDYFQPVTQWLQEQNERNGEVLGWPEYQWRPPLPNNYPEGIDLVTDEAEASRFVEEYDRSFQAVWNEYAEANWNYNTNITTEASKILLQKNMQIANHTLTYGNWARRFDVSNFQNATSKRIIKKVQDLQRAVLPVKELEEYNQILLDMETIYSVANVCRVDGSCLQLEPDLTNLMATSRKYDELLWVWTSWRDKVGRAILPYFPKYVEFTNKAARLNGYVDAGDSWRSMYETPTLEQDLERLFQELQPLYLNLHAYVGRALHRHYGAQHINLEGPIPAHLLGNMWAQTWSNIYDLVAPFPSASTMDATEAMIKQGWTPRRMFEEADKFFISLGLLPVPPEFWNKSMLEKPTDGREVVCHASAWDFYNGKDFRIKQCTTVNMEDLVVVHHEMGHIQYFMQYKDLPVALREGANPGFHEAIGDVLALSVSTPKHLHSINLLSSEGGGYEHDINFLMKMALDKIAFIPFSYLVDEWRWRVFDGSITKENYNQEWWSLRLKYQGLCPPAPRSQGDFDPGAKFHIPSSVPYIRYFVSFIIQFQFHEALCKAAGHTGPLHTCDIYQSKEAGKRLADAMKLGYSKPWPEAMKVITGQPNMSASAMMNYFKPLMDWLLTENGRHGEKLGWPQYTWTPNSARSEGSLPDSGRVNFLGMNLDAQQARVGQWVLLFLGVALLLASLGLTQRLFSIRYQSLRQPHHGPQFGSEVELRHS", "assay": "ACE-inhibitory activity of synthetic peptides (fluorescence assay, substrate Abz-Gly-Phe(NO2)-Pro)", "format": "biochemical", "conditions": "means ± SD of three different experiments, ND = not detected, read-out: ACEi Activity IC50 (µM) ± SD", "method": "The ACE-inhibitory activity of the synthetic peptides was determined according to the method described in [84], with some modifications. This assay is based on the ability of ACE to hydrolyse the substrate o-aminobenzoylglycyl-p-nitrophenylalanyl-proline (Abz-Gly-Phe-(NO2)-Pro, Bachem Feinchemikalien, Bubendorf, Switzerland), producing the fluorescent product o-aminobenzoylglycine (Abz-Gly). Reagents used include: buffer A: 150 mM Tris-HCl buffer (pH 8.3), with 0.1 µM ZnCl2; buffer B: 150 mM de Tris-HCl buffer (pH 8.4), with 1125 mM NaCl; ACE solution (stock): rabbit-lung ACE (E.C.3.4.15.1., Sigma-Aldrich), dissolved in buffer A containing 50% glycerol to make an enzyme concentration of 1 U/mL. This solution was diluted 1/20 with buffer A to obtain the working solution (50 mU/mL), which was prepared fresh every day to conduct the experiment. The substrate solution (Abz-Gly-Phe(NO2)-Pro) was dissolved in buffer B to a final concentration of 0.45 mM. This solution was also prepared every day before its use and was protected from light and kept at 4 °C. The assay was carried out using a fluorescence technique. Black polystyrene plates of 96 wells (Thermo Scientific, Waltham, Massachussets, USA) were used. The wells contained the following reaction solutions: control = 50 μL of Milli-Q water and 50 μL of ACE solution; blank = 50 μL of Milli-Q water and 50 μL of buffer A; sample = 50 μL of sample and 50 μL of ACE solution; sample blank = 50 μL of sample and 50 μL of buffer A. The enzymatic reaction was initiated by adding 200 μL (final volume in each well 300 μL) of substrate solution, and the plate was immediately mixed and incubated at 37 °C in a VICTORX5 fluorometer (PerkinElmer, USA). The fluorescence generated was measured after 30 min using 355 and 420 nm as excitation and emission wavelengths, respectively. The ACE-inhibitory activity of each sample was determined in triplicate. The ACE-inhibitory activity was calculated using the following formula: ACE inhibitory activity (%)=(FC−FB)−(FS−FBs)/FC−FB × 100 where FC (control) is the fluorescence emitted after the action of ACE on the substrate, without inhibitor (i.e., sample); FB (blank) is the fluorescence emitted by the substrate; FS (sample) is the fluorescence emitted after the action of ACE on the substrate, with inhibitor sample; and FBs (blank sample) are the fluorescences emitted by the substrate and the sample.\nThe ACE-inhibitory activity is expressed as IC50, which is the concentration of inhibitor required to inhibit the activity of ACE by 50%."}, "[1]": {"conditions": "cited from earlier work"}, "ACE": {"test_system": "ACE", "conditions": "read-out: ACE inhibition IC50, cited from earlier work"}, "[2]": {"test_system": "pre- or hypertensive humans", "set-up": "method as in PMID 25608938", "conditions": "supplementation of pre- or hypertensive humans for longer than four weeks; meta-analysis of 30 trials; cited from earlier work"}},
  "note": "Like-named read-outs stand apart in the source and are kept apart here. Residues, ends and D or L forms follow the SMILES beside them. No end group written: not given here.",
  "data": [
    {"compound": "CC(C)[C@H](NC(=O)[C@H](CO)NC(=O)[C@H](Cc1ccc(O)cc1)NC(=O)[C@H](CS)NC(=O)[C@@H](N)CS)C(=O)N[C@@H](Cc1ccc(O)cc1)C(=O)O", "note": "[Peptide no. 1 de novo, CCYSVY] (H-CCYSVY-OH)", "values": [
      {"measurement": "IC50", "setting": "rabbit-lung ACE", "value": "25.6 ± 0.41", "unit": "µM"}
    ]},
    {"compound": "N[C@@H](CCC(=O)N[C@@H](CS)C(=O)NCC(=O)O)C(=O)O", "note": "[glutathione]", "values": [
      {"measurement": "antioxidant activity (TEAC)", "setting": "[1]", "value": 0.9, "unit": "TEAC"}
    ]},
    {"compound": "VPP", "values": [
      {"measurement": "IC50", "setting": "ACE; peptides described in dairy", "value": 9, "unit": "µM"},
      {"measurement": "effect on systolic and diastolic blood pressure", "setting": "[2]", "value": "significant reduction in systolic and diastolic blood pressure"}
    ]},
    {"compound": "VCGEAFGKA [Peptide no. 14]", "values": [
      {"measurement": "IC50", "setting": "rabbit-lung ACE", "value": "57.2 ± 4.31", "unit": "µM"}
    ]},
    {"compound": "DCHYFL [Peptide no. 2 de novo, DCHYFL]", "values": [
      {"measurement": "IC50", "setting": "rabbit-lung ACE", "value": "41.5 ± 2.09", "unit": "µM"}
    ]},
    {"compound": "IPP", "values": [
      {"measurement": "IC50", "setting": "ACE; peptides described in dairy", "value": 5, "unit": "µM"},
      {"measurement": "effect on systolic and diastolic blood pressure", "setting": "[2]", "value": "significant reduction in systolic and diastolic blood pressure"}
    ]},
    {"compound": "SVY", "values": [
      {"measurement": "IC50", "setting": "ACE; C-terminal di-/tripeptide of de novo peptide no. 1", "value": 8.1, "unit": "µM"}
    ]},
    {"compound": "CPANGFY [Peptide no. 19, CPANGFY]", "values": [
      {"measurement": "IC50", "setting": "rabbit-lung ACE", "value": "3.76 ± 0.39", "unit": "µM"}
    ]},
    {"compound": "NALLCSNS [compound 18]", "values": [
      {"measurement": "IC50", "setting": "rabbit-lung ACE", "value": "0.98 ± 0.04", "unit": "µM"}
    ]}
  ]
}
